Laboratory results as given in patent US11464802B2, “3-substituted piperidine compounds for Cbl-b inhibition, and use thereof” (Nurix Therapeutics, Inc., priority 2019, dated 2022).

Columns and labels:
Cbl-b [1] = target: T1, Cbl-b (Homo sapiens (Human), UniProt Q13191); assay: Cbl-b displacement assay (Cbl-b inhibition assay), TR-FRET probe displacement, Biological Example 1; format: binding
Procedure, shortened: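 TR-FRET displacement of a BODIPY FL-labelled inhibitor probe (150 nM, ~EC40) from biotin-Avitag truncated Cbl-b, detected via 2 nM streptavidin-Tb, 1 h, room temperature. Compound in 1% DMSO pre-incubated 1 h with Cbl-b at 0.5 nM (High) or 0.125 nM (Low) in 20 mM HEPES pH 7.5, 150 mM NaCl, 0.5 mM TCEP.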

[2] = tested on: primary human total T-cells; assay: Primary human total T-cell activation: IL-2 secretion, Biological Example 2; format: cell-based; details: 48 hours, fold change over baseline; for fold induction at 1 µM: inhibitor 1 μM
[3] = tested on: primary human total T-cells; assay: Primary human total T-cell activation: CD25 surface staining, Biological Example 2; format: cell-based; details: 48 hours, fold change over baseline; for fold induction at 1 µM: inhibitor 1 μM
Cbl-b [4] = target: T1, Cbl-b; assay: Cbl-b displacement assay (Cbl-b inhibition assay), Biological Example 8; format: binding; details: 0.125 nM Cbl-b final concentration (Low); Table 8-1; read-out: Cbl-b IC50 (Low)
Protocol: (§1) Candidate compounds were evaluated for their ability to bind and inhibit Cbl-b, an E3 ubiquitin-protein ligase, as evidenced by their ability to displace a fluorophore-labeled probe bound to Cbl-b.
(§2) The ability of candidate compounds to displace a known inhibitor and thereby inhibit Cbl-b activity was measured by monitoring the interaction of Cbl-b with a fluorophore-labeled probe in the presence of the candidate compound. A truncated variant of Cbl-b (UniProt number Q13191) containing residues 36-427 and an Avitag at its N-terminus was co-expressed with BirA biotin ligase and purified using a standard protocol (see Dou et al., Nature Structural and Molecular Biology 8: 982-987, 2013; Avidity LLC).
(§3) Fluorescently-labeled inhibitor probe was synthesized and tagged with BODIPY FL. Cbl-b displacement assays were performed in a 384-well plate at room temperature in a 10 μl reaction volume by pre-incubating 0.5 nM Cbl-b or 0.125 nM Cbl-b (final concentration, indicated as “High” and “Low”, respectively) in an assay buffer containing 20 mM HEPES pH 7.5, 150 mM NaCl, 0.01% Triton X-100, 0.01% BSA and 0.5 mM TCEP in the presence of a candidate compound in 1% DMSO (final concentration) for 1 hour. After incubation in the presence of the candidate compound, the plate was incubated for an additional 1 hour in the presence of an approximate EC40 binding saturation consisting of 150 nM fluorescently-labeled inhibitor probe and 2 nM Streptavidin-Terbium (Cisbio) (final concentrations). Following the 1 hour incubation, the plates were read for TR-FRET signal at 520/620 nM using an Envision plate reader (Perkin Elmer).
(§4) The resulting data for the Cbl-b activity assays were analyzed using standard methods to determine the IC50 values for the tested compounds.

[5] = tested on: primary human total T-cells; assay: Primary human total T-cell activation: IL-2 secretion, Biological Example 9; format: cell-based; details: 48 hours, fold change over baseline; for fold induction at 0.3 µM: inhibitor 0.3 μM; for fold induction at 0.3 µM / fold induction at 3 µM: Table 9-1; for fold induction at 1 µM: inhibitor 1 μM; for fold induction at 3 µM: inhibitor 3 μM
[6] = tested on: primary human total T-cells; assay: Primary human total T-cell activation: CD25 surface staining, Biological Example 9; format: cell-based; details: 48 hours, fold change over baseline; for fold induction at 0.3 µM: inhibitor 0.3 μM; for fold induction at 0.3 µM / fold induction at 3 µM: Table 9-1; for fold induction at 1 µM: inhibitor 1 μM; for fold induction at 3 µM: inhibitor 3 μM
Cbl-b [7] = target: T1, Cbl-b; assay: Cbl-b displacement assay (Cbl-b inhibition assay), Biological Example 12; format: binding; details: 0.125 nM Cbl-b final concentration (Low); Table 12-1; read-out: Cbl-b IC50 (Low)
Protocol: as §1, §2, §3, §4

[8] = tested on: primary human total T-cells; assay: Primary human total T-cell activation: IL-2 secretion, Biological Example 13; format: cell-based; details: 48 hours, fold change over baseline; for fold induction at 0.3 µM: inhibitor 0.3 μM; for fold induction at 0.3 µM / fold induction at 3 µM: Table 13-1; for fold induction at 1 µM: inhibitor 1 μM; for fold induction at 3 µM: inhibitor 3 μM
[9] = tested on: primary human total T-cells; assay: Primary human total T-cell activation: CD25 surface staining, Biological Example 13; format: cell-based; details: 48 hours, fold change over baseline; for fold induction at 0.3 µM: inhibitor 0.3 μM; for fold induction at 0.3 µM / fold induction at 3 µM: Table 13-1; for fold induction at 1 µM: inhibitor 1 μM; for fold induction at 3 µM: inhibitor 3 μM
TC-1 cell tumor = assay: Cbl-b inhibitor in combination with HPV16 E7 cancer vaccine in mice bearing syngeneic TC-1 tumor, Biological Example 11; format: in vivo, C57BL/6 mice; details: HPV16 E7 vaccine SC + Compound No. 53 180 mg/kg PO BID; TILs on day 10; percent increase relative to vaccine without Cbl-b inhibitor
Protocol: In brief, the combination therapy was tested in C57BL/6 mice bearing a syngeneic TC-1 cell tumor. TC-1 cells were derived from primary murine lung cells, which had been transfected with human papillomavirus strain 16 (HPV16) early proteins 6 and 7 (E6 and E7) and an activated human c-Ha-ras oncogene (Lin et al., Cancer Research, 56: 21-26, 1996). Either 2.5×10^4 (first study) or 5.0×10^4 (second study) TC-1 cells (obtained from Johns Hopkins University) were injected subcutaneously into the mid flank of each mouse. Tumors were allowed to grow to 50-100 mm^3 at which time the animals were randomized and treatment was begun (day 0).
The HPV16 E7 cancer vaccine (Shrimali et al., Cancer Immunol Res, 5: 755-766, 2017) included 100 μg of a synthetic peptide with the amino acid sequence of a CTL epitope of residues 49-57 of E7 ([…] set forth as SEQ ID NO:2), mixed with 20 μg of a synthetic peptide with the amino acid sequence of a Th epitope known as PADRE (aK-Cha-[…]a set for as SEQ ID NO:3, where “a” is D alanine and “Cha” is L-cyclohexylalanine) and 20 μg of a Quil-A® adjuvant marketed by Brenntag Biosector A/S, which contains purified quillaja saponins. The HPV16 E7 vaccine or Dulbecco's phosphate-buffered saline (DPBS) was administered subcutaneously (SC) on days 2 and 9 (=day 16 and day 23 post TC-1 injection). The Cbl-b inhibitor was dissolved in a suitable formulation and administered at a suitable dose level and frequency as informed by prior pharmacokinetic and tolerability studies. In initial studies, the Cbl-b inhibitor (Compound No. 53) in a suitable vehicle, or the vehicle, was administered orally (PO) at a dose of 180 mg/kg twice per day (BID) beginning on day 0 (=day 14 post TC-1 injection). In further studies, a Cbl-b inhibitor formulation was administered orally (PO) or parenterally (e.g., IV, IP, SC, or intratumorally at one to three injection sites per tumor). In addition to the test group of mice who received the combination therapy (the Cbl-b inhibitor formulation plus the HPV16 E7 vaccine), the study included control groups of mice who received: the vehicle formulation plus DPBS, the Cbl-b inhibitor formulation plus DPBS, or the vehicle formulation plus the HPV16 E7 vaccine.
Tumor size was recorded twice a week starting on day 0 (day 14 post TC-1 injection) and continued through duration of dosing until humane endpoints were reached between day 33 and day 42 (=between day 47 and day 56 post TC-1 injection). The level of response was evaluated by comparing tumor growth in the test mice versus the control mice (10 mice per group). In addition, the level of immune activation was assessed by collecting tumors for analysis of tumor infiltrating lymphocytes (TILs) on day 10 (=day 24 post TC-1 injection) in test and control mice (6 mice per group). TILs were processed for flow cytometric analysis using standard methods to determine antigen specificity, expression of cell type-specific markers, and expression of activation markers such as granzyme B, CD25, CD69, PD-1, and LAG3. In further experiments, PBMCs and/or splenocytes were also collected and processed. Augmentation of the anti-tumor immune response by the combination therapy was assessed by comparing the relative percentage of total or E7-specific (tumor antigen-specific) CD8+ T cells, and the relative levels of expression of activation markers on immune cells in mice of the test and study groups.

[10] = anti-CD3/anti-CD28 co-stimulation, inhibitor 0.3 μM
[11] = anti-CD3/anti-CD28 co-stimulation
[12] = anti-CD3/anti-CD28 co-stimulation, Table 9-1, read-out: IL-2 secretion CD3/CD28 1 μM
[13] = anti-CD3 alone, Table 9-1, read-out: IL-2 secretion CD3 1 μM
[14] = anti-CD3/anti-CD28 co-stimulation, Table 9-1, read-out: CD25 staining CD3/CD28 1 μM
[15] = anti-CD3 alone, Table 9-1, read-out: CD25 staining CD3 1 μM
[16] = anti-CD3/anti-CD28 co-stimulation, Table 13-1, read-out: IL-2 secretion CD3/CD28 1 μM
[17] = anti-CD3 alone, Table 13-1, read-out: IL-2 secretion CD3 1 μM
[18] = anti-CD3/anti-CD28 co-stimulation, Table 13-1, read-out: CD25 staining CD3/CD28 1 μM
[19] = anti-CD3 alone, Table 13-1, read-out: CD25 staining CD3 1 μM

T1 sequence (Q13191 36-427): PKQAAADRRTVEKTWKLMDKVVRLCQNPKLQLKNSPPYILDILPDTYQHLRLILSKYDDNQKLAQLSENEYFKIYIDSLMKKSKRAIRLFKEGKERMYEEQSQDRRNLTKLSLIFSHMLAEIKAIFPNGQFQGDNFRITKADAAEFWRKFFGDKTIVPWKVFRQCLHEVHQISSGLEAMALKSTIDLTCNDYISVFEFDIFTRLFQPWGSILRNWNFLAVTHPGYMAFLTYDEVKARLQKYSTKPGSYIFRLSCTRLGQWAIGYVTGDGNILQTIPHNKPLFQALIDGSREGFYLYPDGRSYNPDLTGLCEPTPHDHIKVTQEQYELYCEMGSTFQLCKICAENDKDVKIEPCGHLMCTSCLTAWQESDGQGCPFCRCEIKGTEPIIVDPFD

CCNc1cc(C2(Cc3nncn3C)COC2)cc(N2Cc3c(cc(CN4CCC[C@H](C)C4)cc3C(F)(F)F)C2=O)n1 [Compound 44, 2-[6-(ethylamino)-4-{3-[(4-methyl-1,2,4-triazol-3-yl)methyl]oxetan-3-yl}pyridin-2-yl]-6-{[(3S)-3-methylpiperidin-1-yl]methyl}-4-(trifluoromethyl)-3H-isoindol-1-one]
IC50 (Cbl-b [1]; 0.125 nM Cbl-b final concentration (Low), read-out: Cbl-b activity IC50 (Low)): < 1 nM
IC50 (Cbl-b [1]; Cbl-b concentration (High or Low) not given, read-out: IC50 values in the Cbl-b inhibition assay of Biological Example 1): < 1 nM
fold induction at 0.3 µM [2, 10]: > 15
fold induction at 1 µM ([2]; anti-CD3/anti-CD28 co-stimulation, read-out: IL-2 secretion CD3/CD28 1 μM): > 15
fold induction at 1 µM ([2]; anti-CD3 alone, read-out: IL-2 secretion CD3 1 μM): > 0.66
fold induction at 3 µM ([2]; anti-CD3 alone, inhibitor 3 μM): > 0.66
fold induction at 0.3 µM [3, 10]: > 1.39
fold induction at 1 µM ([3]; anti-CD3/anti-CD28 co-stimulation, read-out: CD25 staining CD3/CD28 1 μM): > 1.39
fold induction at 1 µM ([3]; anti-CD3 alone, read-out: CD25 staining CD3 1 μM): > 1.14
fold induction at 3 µM ([3]; anti-CD3 alone, inhibitor 3 μM): > 1.14
IC50 (Cbl-b [4]): < 1 nM
fold induction at 0.3 µM [5, 11]: < 10
fold induction at 1 µM [5, 12]: < 10
fold induction at 1 µM [5, 13]: < 0.33
fold induction at 3 µM ([5]; anti-CD3 alone): 0.34 to 0.66
fold induction at 0.3 µM [6, 11]: 1.25 to 1.39
fold induction at 1 µM [6, 14]: 1.25 to 1.39
fold induction at 1 µM [6, 15]: 1.05 to 1.14
fold induction at 3 µM ([6]; anti-CD3 alone): 1.05 to 1.14
IC50 (Cbl-b [7]): < 1 nM
fold induction at 0.3 µM [8, 11]: < 10
fold induction at 1 µM [8, 16]: < 10
fold induction at 1 µM [8, 17]: < 0.33
fold induction at 3 µM ([8]; anti-CD3 alone): 0.34 to 0.66
fold induction at 0.3 µM [9, 11]: 1.25 to 1.39
fold induction at 1 µM [9, 18]: 1.25 to 1.39
fold induction at 1 µM [9, 19]: 1.05 to 1.14
fold induction at 3 µM ([9]; anti-CD3 alone): 1.05 to 1.14

Cc1cc(C(=O)Nc2cccc(C3(Cc4nncn4C)COC3)c2)nc(C2CC2)n1 [Compound 53]
IC50 (Cbl-b [4]): > 5 nM
fold induction at 0.3 µM [5, 11]: < 10
fold induction at 1 µM [5, 12]: 10 to 15
fold induction at 1 µM [5, 13]: 0.34 to 0.66
fold induction at 3 µM ([5]; anti-CD3 alone): 0.34 to 0.66
fold induction at 0.3 µM [6, 11]: > 1.39
fold induction at 1 µM [6, 14]: > 1.39
fold induction at 1 µM [6, 15]: > 1.14
fold induction at 3 µM ([6]; anti-CD3 alone): > 1.14
Mean increase in CD8+ T cells in TILs: % E7 positive T cells (TC-1 cell tumor): 33.7%
Mean increase in CD8+ T cells in TILs: % Granzyme positive (E7+ T cells) (TC-1 cell tumor): 7.86%
Mean increase in CD8+ T cells in TILs: % Granzyme positive (E7− T cells) (TC-1 cell tumor): 4.12%
Mean increase in CD8+ T cells in TILs: % LAG3 positive (E7+ T cells) (TC-1 cell tumor): 13.49%
Mean increase in CD8+ T cells in TILs: % LAG3 positive (E7− cells) (TC-1 cell tumor): 0.96%
Mean increase in CD8+ T cells in TILs: % PD1 positive (E7+ T cells) (TC-1 cell tumor): 14.97%
Mean increase in CD8+ T cells in TILs: % PD1 positive (E7− T cells) (TC-1 cell tumor): 20.23%
IC50 (Cbl-b [7]): > 5 nM
fold induction at 0.3 µM [8, 11]: < 10
fold induction at 1 µM [8, 16]: 11 to 15
fold induction at 1 µM [8, 17]: 0.34 to 0.66
fold induction at 3 µM ([8]; anti-CD3 alone): 0.34 to 0.66
fold induction at 0.3 µM [9, 11]: > 1.39
fold induction at 1 µM [9, 18]: > 1.39
fold induction at 1 µM [9, 19]: > 1.14
fold induction at 3 µM ([9]; anti-CD3 alone): > 1.14
